# Reference: patent US20260199500A1, “Camptothecin Derivative, Conjugate Thereof, Preparation Method Therefor and Medical Use Thereof” (priority 2023, published 2026)
# Tests used:
# H82 (SCLC) cells = test: Inhibition of H82 cells by compounds; type: cell-based; details: PY-X (DXD) set to 1
# Method: (§1) On the day of the experiment, the cells were digested with 0.25% trypsin (Gibco, 25200-072), filtered through a 40 μm sieve, diluted with the corresponding medium to a cell density of 1×10^4 cells/mL, and inoculated into a 96-well white cell culture plate (Beyotime, FCP968), with 100 μL of cells added per well. The culture plate was placed in a 37° C. incubator (Thermo 311) containing 5% C02 and incubated for 24 hours. On the second day, the samples to be tested were prepared as a stock solution at a final concentration of 1M in DMSO (Sigma, D1650), then diluted with the corresponding medium to a final concentration of 200 nM, and subjected to four-fold serial dilutions, resulting in a total of 9 concentrations. 100 μL of the diluted sample was added to each well of the 96-well plate. The plate was placed in a 37° C. incubator containing 5% CO2 and incubated for 144 hours. The cell culture plate was then removed, and 100 μL of the cell viability assay reagent (CellTiter-Glo® Luminescent Cell Viability Assay, Promega, G7571) was added to each well. The reaction was carried out in the dark at room temperature for 5 minutes. Luminescence values were read using a microplate reader (TECAN SPARK), and data were processed using Graphpad Prism 7 software.
# H1650 (NSCLC) cells = test: Inhibition of H1650 cells by compounds; type: cell-based; details: PY-X (DXD) set to 1
# Method: as §1
# H1437 (NSCLC) cells = test: Inhibition of H1437 cells by compounds; type: cell-based; details: PY-X (DXD) set to 1
# Method: as §1
# SW1573 (NSCLC) cells = test: Inhibition of SW1573 cells by compounds; type: cell-based; details: PY-X (DXD) set to 1
# Method: as §1
# [1] = tested on: PANC-1 (Pancreatic) cells; test: Inhibition of PANC-1 cells by compounds; type: cell-based; details: PY-X (DXD) set to 1
# Method: as §1
# Colo-205 (Colon) cells = test: Inhibition of Colo-205 cells by compounds; type: cell-based; details: PY-X (DXD) set to 1
# Method: as §1
# HT-29 (Colon) cells = test: Inhibition of HT-29 cells by compounds; type: cell-based; details: PY-X (DXD) set to 1
# Method: as §1
# A549 (NSCLC) cells = test: Inhibition of A549 cells by compounds; type: cell-based; details: PY-X (DXD) set to 1
# Method: as §1
# [2] = tested on: SW1990 (Pancreatic) cells; test: Inhibition of SW1990 cells by compounds; type: cell-based; details: PY-X (DXD) set to 1
# Method: as §1
# N87 gastric cancer cells = test: Inhibitory activity of compounds on N87 gastric cancer cells (CellTiter-Glo, 144 h); type: cell-based; details: for IC50 on N87 cells, ratio to DXD: IC50 of PY-X (DXD) set to 1, values are ratios of measured IC50 to DXD, 144 h
# Method: as §1
# (§2) PY—Y is referenced in the document (WO2022170971A1); and PY-A is referenced in the document (WO2021148501A1).
# [3] = tested on: MDA-MB-468 breast cancer cells; test: Inhibitory activity of compounds on MDA-MB-468 breast cancer cells (CellTiter-Glo); type: cell-based; details: for IC50 on 468 cells, ratio to DXD: IC50 of PY-X (DXD) set to 1, values are ratios of measured IC50 to DXD
# Method: as §1, §2
# [4] = Log D of small molecules (1-octanol / phosphate buffer pH 2.5 and pH 7.4, LC-MS/MS); type: physicochemical
# Method: (1) Preparation of 100 mM phosphate buffer (PB) solution at pH 2.5 and pH 7.4 respectively: • a. Preparation of a solution of 100 mM H3PO4 in water: 14.7 M H3PO4 was diluted with water to a concentration of 100 mM H3PO4, and the pH was measured to be approximately 1.8. • b. Preparation of 100 mM NaH2PO4: 5.999 g of NaH2PO4 was dissolved in 500 mL of water and the pH was measured to be approximately 4.5. • c. Preparation of 100 mM Na2HPO4: 7.098 g of Na2HPO4 was dissolved in water to a volume of 500 mL and the pH was measured to be approximately 9.4. • d. Preparation of 100 mM PB (pH 2.5): 15 mL of 100 mM H3PO4 was added to a 50 mL tube, and then pH was adjusted to 2.5±0.05 with 100 mM NaH2PO4. • d. Preparation of 100 mM PB (pH 7.4): 15 mL of 100 mM Na2HPO4 was added to a 50 mL tube, and then pH was adjusted to 7.4±0.05 with 100 mM NaH2PO4.
# (2) Saturation of PBs (pH 2.5 and pH 7.4) with 1-octanol: 10 mL of 1-octanol was added to 100 mL of 100 mM PBs (pH 2.5 and pH 7.4), and the mixture was shaken vigorously, and then allowed to stand overnight at room temperature for later use.
# (3) Saturation of 1-octanol with PBs (pH 2.5 and pH 7.4): 10 mL of 100 mM PBs (pH 2.5 and pH 7.4) was added to 100 mL of 1-octanol, and the mixture was shaken vigorously, and then allowed to stand overnight at room temperature for later use.
# 2.1) 2 μL of 10 mM DMSO stock solution of the test compound were dispensed into test tubes, in duplicate.
# 2.2) 149 μL of PB saturated with 1-octanol (pH 2.5 and 7.4) were added to the tubes.
# 2.3) 149 μL of PB (pH 2.5 and 7.4) saturated with 1-octanol were added to the corresponding tubes.
# 2.4) Each tube was vigorously mixed for 2 minutes, then shaken at 800 rpm for 1 hour at room temperature.
# 2.5) The tubes were centrifuged at 4000 rpm for 5 minutes at room temperature.
# 2.6) Appropriate volumes of the buffer phase and 1-octanol phase samples were aliquoted.
# 2.7) These samples were diluted and analyzed using LC-MS/MS without running a calibration curve.
# 2.8) Data analysis: The log D value of each compound was calculated using the following formula: f
# [5] = samples retested together, ratio of measured IC50 to DXD
compound,measurement,setting,value
"CC[C@@]1(O)C(=O)OCc2c1cc1n(c2=O)Cc2c-1nc1cc(Cl)c(CO)c3c1c2CCC3 [PY-37, (S)-5-chloro-9-ethyl-9-hydroxy-4-(hydroxymethyl)-1,2,3,9,12,15-hexahydro-10 h,13 h-benzo[de]pyrano[3′,4′:6,7]indolizino[1,2-b]quinolin-10,13-dione]","IC50 in H82 cells, ratio to DXD",H82 (SCLC) cells,1.1563
same,"IC50 in H1650 cells, ratio to DXD",H1650 (NSCLC) cells,0.7310
same,"IC50 in H1437 cells, ratio to DXD",H1437 (NSCLC) cells,0.9440
same,"IC50 in SW1573 cells, ratio to DXD",SW1573 (NSCLC) cells,0.6712
same,"IC50 in PANC-1 cells, ratio to DXD",[1],0.3514
same,"IC50 in Colo-205 cells, ratio to DXD",Colo-205 (Colon) cells,0.6449
same,"IC50 in HT-29 cells, ratio to DXD",HT-29 (Colon) cells,0.4700
same,"IC50 in A549 cells, ratio to DXD",A549 (NSCLC) cells,0.4179
same,"IC50 in SW1990 cells, ratio to DXD",[2],0.7777
"CC[C@@]1(O)C(=O)OCc2c1cc1n(c2=O)Cc2c-1nc1cc(F)c(C)c3c1c2[C@@H](NC(=O)CO)CC3 [PY-X (DXD), exatecan DXD, reference compound]","IC50 on N87 cells, ratio to DXD",N87 gastric cancer cells,1.0000
same,"IC50 on 468 cells, ratio to DXD",[3],1.0000
same,Log D2.5 (Oct/buff) Result,[4]; 1-octanol / phosphate buffer pH 2.5,1.68
same,Log D7.4 (Oct/buff) Result,[4]; 1-octanol / phosphate buffer pH 7.4,1.67
CC[C@@]1(O)C(=O)OCc2c1cc1n(c2=O)Cc2c-1nc1cc(F)c(CCN)c3c1c2CCC3 [PY-20],"IC50 on N87 cells, ratio to DXD",N87 gastric cancer cells,1.0070
same,"IC50 on 468 cells, ratio to DXD",[3],1.2806
"CC[C@@]1(O)C(=O)OCc2c1cc1n(c2=O)Cc2c-1nc1cc(F)c(OC)c3c1c2CCC3 [PY-11, (S)-9-ethyl-5-fluoro-9-hydroxy-4-methoxy-1,2,3,9,12,15-hexahydro-10H,13H-benzo[de]pyrano[3′,4:6,7]indolizino[1,2-b]quinolin-10,13-dione]","IC50 on N87 cells, ratio to DXD",N87 gastric cancer cells,0.0606
same,"IC50 on 468 cells, ratio to DXD",[3],0.9642
"CC[C@@]1(O)C(=O)OCc2c1cc1n(c2=O)Cc2c-1nc1cc(F)c(OC)c3c1c2[C@H](N)CC3 [PY-12B, (1R,9S)-1-amino-9-ethyl-5-fluoro-9-hydroxy-4-methoxy-1,2,3,9,12,15-hexahydro-10H,13H-benzo[de]pyrano[3′,4:6,7]indolizino[1,2-b]quinolin-10,13-dione]","IC50 on N87 cells, ratio to DXD",N87 gastric cancer cells,5.3044
same,"IC50 on 468 cells, ratio to DXD",[3],8.4257
"(S)-9-ethyl-5-fluoro-9-hydroxy-1,2,3,9,12,15-hexahydro-10H,13H-benzo[de]pyrano[3′,4′: 6,7]indolizino[1,2-b]quinolin-10,13-dione [PY-10B]","IC50 on N87 cells, ratio to DXD",N87 gastric cancer cells,0.1623
same,"IC50 on 468 cells, ratio to DXD",[3],0.4362
"CC[C@@]1(O)C(=O)OCc2c1cc1n(c2=O)Cc2c-1nc1cc(F)c(COC(=O)NCCO)c3c1c2CCC3 [PY-27(10Car), (S)-(9-ethyl-5-fluoro-9-hydroxy-10,13-dioxy-2,3,9,10,13,15-hexahydro-1H,12H-benzo[d]pyrano[3′,4′:6,7]indolizino[1,2-b]quinolin-4-yl)methyl(2-hydroxyethyl)carbamate]","IC50 on N87 cells, ratio to DXD",N87 gastric cancer cells,3.3500
same,"IC50 on 468 cells, ratio to DXD",[3],3.7610
CC[C@@]1(O)C(=O)OCc2c1cc1n(c2=O)Cc2c-1nc1cc(F)c(CCCCN)c3c1c2CCC3 [PY-24],"IC50 on N87 cells, ratio to DXD",N87 gastric cancer cells,1.5288
same,"IC50 on 468 cells, ratio to DXD",[3],2.2057
"CC[C@@]1(O)C(=O)OCc2c1cc1n(c2=O)Cc2c-1nc1cc(F)c(OCCN)c3c1c2CCC3 [PY-17, (S)-4-(2-aminoethoxy)-9-ethyl-5-fluoro-9-hydroxy-1,2,3,9,12,15-hexahydro-10H,13H-benzo[d]pyrano[3′,4′:6,7]indolizino[1,2-b]quinolin-10,13-dione]","IC50 on N87 cells, ratio to DXD",N87 gastric cancer cells,3.7859
same,"IC50 on 468 cells, ratio to DXD",[3],8.0396
"CC[C@@]1(O)C(=O)OCc2c1cc1n(c2=O)Cc2c-1nc1ccc(CO)c3c1c2CCC3 [PY-37A, (S)-9-ethyl-9-hydroxy-4-(hydroxymethyl)-1,2,3,9,12,15-hexahydro-10 h,13 h-benzo[de]pyrano[3′,4′:6,7]indolizino[1,2-b]quinolin-10,13-dione]","IC50 in H82 cells, ratio to DXD",H82 (SCLC) cells,0.4153
same,"IC50 in H1650 cells, ratio to DXD",H1650 (NSCLC) cells,0.2611
same,"IC50 in H1437 cells, ratio to DXD",H1437 (NSCLC) cells,0.2619
same,"IC50 in SW1573 cells, ratio to DXD",SW1573 (NSCLC) cells,0.2884
same,"IC50 in PANC-1 cells, ratio to DXD",[1],0.1992
same,"IC50 in Colo-205 cells, ratio to DXD",Colo-205 (Colon) cells,0.2763
same,"IC50 in HT-29 cells, ratio to DXD",HT-29 (Colon) cells,0.2181
same,"IC50 in A549 cells, ratio to DXD",A549 (NSCLC) cells,0.2044
same,"IC50 in SW1990 cells, ratio to DXD",[2],0.2986
"CC[C@@]1(O)C(=O)OCc2c1cc1n(c2=O)Cc2c-1nc1cc(F)c(C)c3c1c2[C@@H](CC(=O)NCCO)CC3 [PY-25B, 2-((1R,9S)-9-9-ethyl-5-fluoro-9-hydroxy-4-methyl-10,13-dioxo-2,3,9,10,13,15-hexahydro-1H,12H-benzo[de]pyrano[3′,4′:6,7]indolizino[1,2-b]quinolin-1-yl)-N-(2-hydroxyethyl)acetamide]","IC50 on N87 cells, ratio to DXD",N87 gastric cancer cells,2.9428
same,"IC50 on 468 cells, ratio to DXD",[3],1.3101
"CC[C@@]1(O)C(=O)OCc2c1cc1n(c2=O)Cc2c-1nc1cc(F)c(C)c3c1c2[C@@H](NC(=O)OCCCO)CC3 [PY-4Car3C, 3-hydroxypropyl((1S,9S)-9-ethyl-5-fluoro-9-hydroxy-4-methyl-10,13-dioxo-2,3,9,10,13,15-hexahydro-1H,12H-benzo[d]pyrano[3′,4′:6,7]indolizino[1,2-b]quinolin-1-yl)carbamate]","IC50 on N87 cells, ratio to DXD (retest)",N87 gastric cancer cells; [5],0.3593
same,"IC50 on 468 cells, ratio to DXD (retest)",[3]; [5],0.5740
same,logD,[4]; pH 2.5,2.2
same,logD,[4]; pH 7.4,2.29
"CC[C@@]1(O)C(=O)OCc2c1cc1n(c2=O)Cc2c-1nc1cc(F)c(OC)c3c1c2[C@@H](N)CC3 [PY-12A, (1S,9S)-1-amino-9-ethyl-5-fluoro-9-hydroxy-4-methoxy-1,2,3,9,12,15-hexahydro-10H,13H-benzo[de]pyrano[3′,4:6,7]indolizino[1,2-b]quinolin-10,13-dione]","IC50 on N87 cells, ratio to DXD",N87 gastric cancer cells,1.6441
same,"IC50 on 468 cells, ratio to DXD",[3],3.3035
